Results: patent publication US12012388B1, “4-chloro-n'-(2-(5-(4-chlorophenyl)-1,3,4-oxadiazol-2-ylthio)acetoxy)benzimidamide as an antimicrobial compound” (KING FAISAL UNIVERSITY, priority 2023, dated 2024)

Tests used:
Assay type in all cases: cell-based
Staphylococcus aureus = test: Agar plate disc-diffusion, antibacterial activity (inhibition zone); details: nutrient agar, 37° C., 48 h, DMSO zone subtracted
Description: (§1) The agar plate disc-diffusion method was applied. Sterilized filter papers (6 mm in diameter) were wetted with 10 μL of a solution of 4-chloro-N′-(2-(5-(4-chlorophenyl)-1,3,4-oxadiazol-2-ylthio)acetoxy)benzimidamide (3) to be tested, containing 10 mg/mL in DMSO, and the discs were allowed to air dry. The discs were then placed onto the surface of agar plates (nutrient agar for bacteria and Sabouraud's dextrose agar for fungi) seeded with the test organism. Each plate contained 15 mL of the agar medium, previously seeded with 0.2 mL of the broth culture of each organism pregrown for 18 hours. The plates were incubated at 37° C. for 48 h, and 72 h for fungi. The inhibition zones were measured in mm. Discs impregnated with DMSO were used as a control, and its inhibition zone was subtracted from the tested compound actual inhibition zone.
(§2) The results of the antimicrobial testing can be observed in Tables 1 and 2, below, using ciprofloxacin as a reference.

Bacillus Cereus = test: as above; details: nutrient agar, 37° C., 48 h, DMSO zone subtracted
Description: as §1, §2

Escherichia coli = test: as above; details: nutrient agar, 37° C., 48 h, DMSO zone subtracted
Description: as §1, §2

Pseudomonas aeruginosa = test: as above; details: nutrient agar, 37° C., 48 h, DMSO zone subtracted
Description: as §1, §2

Aspergillus flavus = test: Agar plate disc-diffusion, antifungal activity (inhibition zone); details: Sabouraud's dextrose agar, 37° C., 72 h, DMSO zone subtracted
Description: as §1, §2

[1] = tested on: Chrysosporium keratinophilum; test: as above; details: Sabouraud's dextrose agar, 37° C., 72 h, DMSO zone subtracted
Description: as §1, §2

[2] = A = concentration of comp. = 10,000 μL
[3] = B = concentration of comp. = 30.000 μL
[4] = C = concentration of comp. = 50,000 μL

N/C(=N\OC(=O)CSc1nnc(-c2ccc(Cl)cc2)o1)c1ccc(Cl)cc1 [Compound 3, 4-chloro-N′-(2-(5-(4-chlorophenyl)-1,3,4-oxadiazol-2-ylthio)acetoxy)benzimidamide]
inhibition zone, Staphylococcus aureus, A (Staphylococcus aureus; [2]): 19 mm
inhibition zone, Staphylococcus aureus, B (Staphylococcus aureus; [3]): 24 mm
inhibition zone, Staphylococcus aureus, C (Staphylococcus aureus; [4]): 37 mm
inhibition zone, Bacillus Cereus, A (Bacillus Cereus; [2]): 20 mm
inhibition zone, Bacillus Cereus, B (Bacillus Cereus; [3]): 26 mm
inhibition zone, Bacillus Cereus, C (Bacillus Cereus; [4]): 39 mm
inhibition zone, Escherichia coli, A (Escherichia coli; [2]): 27 mm
inhibition zone, Escherichia coli, B (Escherichia coli; [3]): 34 mm
inhibition zone, Escherichia coli, C (Escherichia coli; [4]): 41 mm
inhibition zone, Pseudomonas aeruginosa, A (Pseudomonas aeruginosa; [2]): 21 mm
inhibition zone, Pseudomonas aeruginosa, B (Pseudomonas aeruginosa; [3]): 24 mm
inhibition zone, Pseudomonas aeruginosa, C (Pseudomonas aeruginosa; [4]): 36 mm
inhibition zone, Aspergillus flavus, A (Aspergillus flavus; [2]): 24 mm
inhibition zone, Aspergillus flavus, B (Aspergillus flavus; [3]): 26 mm
inhibition zone, Aspergillus flavus, C (Aspergillus flavus; [4]): 35 mm
inhibition zone, Chrysosporium keratinophilum, A [1, 2]: 25 mm
inhibition zone, Chrysosporium keratinophilum, B [1, 3]: 27 mm
inhibition zone, Chrysosporium keratinophilum, C [1, 4]: 40 mm
